In article PMC7377239, “Cardiovascular Effects of Polychlorinated Biphenyls and Their Major Metabolites” (Environmental Health Perspectives, 2020):
Read-outs that look alike come from different tables or passages of the source.

What was measured:
[1] = tested on: iCell endothelial cells (human iPSC-derived ECs); assay: High-content imaging cytotoxicity in iCell endothelial cells, 24 h; assay type: cell-based; settings: Homo sapiens, Endothelial cell; for viability at 0.1 µM / activity at 0.1 µM: 0.10 µM
How it was run: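 Readouts were vehicle-normalised and fitted to a four-parameter logistic model. POD was set at one SD beyond 0.5% DMSO control means, and 100 µM was assigned when no response was seen. Cells were monolayers of iCell endothelial cells imaged after 24 h compound exposure using nuclear, mitochondrial and calcein dyes.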

HUVECs = assay: High-content imaging cytotoxicity in HUVECs, 24 h; assay type: cell-based, human; settings: for minimal effective concentration / viability at 0.01 µM / activity at 0.01 µM / activity at 0.1 µM / viability at 1 µM / activity at 1 µM / viability at 10 µM / activity at 10 µM / viability at 100 µM / activity at 100 µM: Homo sapiens, HUVEC, 24 h; for viability at 0.01 µM / activity at 0.01 µM: concentration 0.01 µM; for viability at 1 µM / activity at 1 µM: concentration 1.00 µM; for viability at 10 µM / activity at 10 µM: concentration 10.00 µM; for viability at 100 µM / activity at 100 µM: concentration 100.00 µM
How it was run: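 Read-out: multiwavelength high-content imaging of Hoechst 33342, MitoTracker Orange and calcein AM after 24 h compound exposure of confluent HUVEC monolayers. POD values were set using a one-SD cutoff from vehicle (0.5% DMSO) means; with no concentration–response, 100μM was assigned as no observable adverse effect level.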

[2] = endothelial cells (endo), nma, 24 hr, read-out: POD endo.nma.24hr
[3] = mitoint, 24 hr, read-out: POD huvec.mitoint.24hr
[4] = nma, 24 hr, read-out: POD huvec.nma.24hr
[5] = iPSC-EC, 0.00 µM = 100.00, read-out: endo.cyto.24hr
[6] = iPSC-EC, 0.00 µM = 100.00, read-out: endo.mito.24hr
[7] = iPSC-EC, 0.00 µM = 100.00, read-out: endo.mitoint.24hr
[8] = iPSC-EC, 0.00 µM = 100.00, read-out: endo.nma.24hr
[9] = iPSC-EC, 0.00 µM = 100.00, read-out: endo.tc.24hrs
[10] = HUVECs, 24 hr, 0.00 µM = 100.00, read-out: huvec.cyto.24hr
[11] = HUVECs, 24 hr, 0.00 µM = 100.00, read-out: huvec.mito.24hr
[12] = HUVECs, 24 hr, 0.00 µM = 100.00, read-out: huvec.mitoint.24hr
[13] = HUVECs, 24 hr, 0.00 µM = 100.00, read-out: huvec.nma.24hr
[14] = HUVECs, 24 hrs, 0.00 µM = 100.00, read-out: huvec.tc.24hrs

For `Oc1cc(Cl)cc(-c2cccc(Cl)c2)c1` [5-OH-PCB 11], the minimal effective concentration ([1]; endothelial cells (endo), cyto, 24 hr, read-out: POD endo.cyto.24hr) was 42.3 µM, the minimal effective concentration ([1]; endothelial cells (endo), mito, 24 hr, read-out: POD endo.mito.24hr) was 42.3 µM and the minimal effective concentration ([1]; endothelial cells (endo), mitoint, 24 hr, read-out: POD endo.mitoint.24hr) was 55 µM. For the same molecule, the minimal effective concentration [1, 2] was 14.2 µM, the minimal effective concentration ([1]; endothelial cells (endo), tc, 24 hr, read-out: POD endo.tc.24hr) was 43.2 µM and the minimal effective concentration (HUVECs; cyto, 24 hr, read-out: POD huvec.cyto.24hr) was 0.95 µM. It also gave a minimal effective concentration (HUVECs; mito, 24 hr, read-out: POD huvec.mito.24hr) of 0.84 µM, a minimal effective concentration (HUVECs; [3]) of 3.3 µM and a minimal effective concentration (HUVECs; [4]) of 1.22 µM. The minimal effective concentration (HUVECs; tc, 24 hr, read-out: POD huvec.tc.24hr) was 0.95 µM.

`Clc1ccc(Cl)c(-c2c(Cl)ccc(Cl)c2Cl)c1Cl` [(+)-PCB 136, 2,2′,3,3′,6,6′-hexachlorobiphenyl] gave a minimal effective concentration [1, 2] of 100 µM, a viability at 0.01 µM [1, 5] of 103% and an activity at 0.01 µM [1, 6] of 103%. The activity at 0.01 µM [1, 7] was 96.4%, the activity at 0.01 µM [1, 8] was 102% and the viability at 0.01 µM [1, 9] was 103%. For the same molecule, the viability at 0.1 µM [1, 5] was 103%, the activity at 0.1 µM [1, 6] was 104% and the activity at 0.1 µM [1, 7] was 95.5%. For the same molecule, the activity at 0.1 µM [1, 8] was 98.7%, the viability at 0.1 µM [1, 9] was 103% and the viability at 1 µM [1, 5] was 103%. It also gave an activity at 1 µM [1, 6] of 103%, an activity at 1 µM [1, 7] of 92.5% and an activity at 1 µM [1, 8] of 98.5%. The viability at 1 µM [1, 9] was 103%, the viability at 10 µM [1, 5] was 101% and the activity at 10 µM [1, 6] was 102%. It also gave an activity at 10 µM [1, 7] of 92.2%, an activity at 10 µM [1, 8] of 99.4% and a viability at 10 µM [1, 9] of 101%. It also gave a viability at 100 µM [1, 5] of 46.7%, an activity at 100 µM [1, 6] of 41.6% and an activity at 100 µM [1, 7] of 51.5%. For the same molecule, the activity at 100 µM [1, 8] was 104%, the viability at 100 µM [1, 9] was 50.8% and the minimal effective concentration ([1]; iPSC-EC, 100.00 = highest concentration tested, read-out: endo.nma.24hr POD) was 100 µM. For the same molecule, the huvec.mito.24hr (HUVECs; HUVECs, 24 hr, concentration 0.10 µM, 0.00 µM = 100.00) was 96.64, the minimal effective concentration (HUVECs; [3]) was 0.64 µM and the minimal effective concentration (HUVECs; [4]) was 1.82 µM. For the same molecule, the viability at 0.01 µM (HUVECs; [10]) was 89.2%, the activity at 0.01 µM (HUVECs; [11]) was 87.1% and the activity at 0.01 µM (HUVECs; [12]) was 81.7%. It also gave an activity at 0.01 µM (HUVECs; [13]) of 95.8%, an activity at 0.1 µM (HUVECs; HUVECs, 24 hr, concentration 0.10 µM, 0.00 µM = 100.00, read-out: huvec.mitoint.24hr) of 80.9% and an activity at 0.1 µM (HUVECs; HUVECs, 24 hr, concentration 0.10 µM, 0.00 µM = 100.00, read-out: huvec.nma.24hr) of 93.4%. It also gave a viability at 1 µM (HUVECs; [10]) of 81.4%, an activity at 1 µM (HUVECs; [11]) of 80.3% and an activity at 1 µM (HUVECs; [12]) of 78.8%. It also gave an activity at 1 µM (HUVECs; [13]) of 99.5%, a viability at 10 µM (HUVECs; [10]) of 65.2% and an activity at 10 µM (HUVECs; [11]) of 30.4%. For the same molecule, the activity at 10 µM (HUVECs; [12]) was 9.57%, the activity at 10 µM (HUVECs; [13]) was 50.8% and the viability at 100 µM (HUVECs; [10]) was 40%. The activity at 100 µM (HUVECs; [11]) was 25.7%, the activity at 100 µM (HUVECs; [12]) was 14.8% and the activity at 100 µM (HUVECs; [13]) was 75.7%. For the same molecule, the minimal effective concentration (HUVECs; HUVECs, 24 hr, MAX 100.00, read-out: huvec.mitoint.24hr POD) was 0.64 µM, the minimal effective concentration (HUVECs; HUVECs, 24 hr, MAX 100.00, read-out: huvec.nma.24hr POD) was 1.82 µM and the viability at 0.01 µM (HUVECs; [14]) was 89.2%. The viability at 1 µM (HUVECs; [14]) was 81.4%, the viability at 10 µM (HUVECs; [14]) was 65.3% and the viability at 100 µM (HUVECs; [14]) was 40.2%.
